# In publication PMC10141620 (Viruses, 2023):
# Entries after “also recorded” stand apart in the source; their conditions may differ. Where two headings read alike, the source gives them in different places.
# Key:
# [1] = in vitro; details: human
# [2] = tested on: SARS-CoV-2 spike (Wuhan-Hu-1) mediated cell-to-cell fusion, Jurkat donor / 293T/ACE2 acceptor cells; test: microbe, parasite or virus in culture; format: cell-based; details: for IC50: Severe acute respiratory syndrome coronavirus 2, 4 h, read-out: IC50, cell-to-cell fusion inhibition
# [3] = tested on: NL4-3ΔEnv-NanoLuc/MERS-CoV pseudovirus; test: microbe, parasite or virus in culture; format: cell-based; details: Middle East respiratory syndrome-related coronavirus
# [4] = tested on: NL4-3ΔEnv-NanoLuc/SARS-CoV-2 (USA-WA1/2020) pseudovirus; test: organism not typed; format: cell-based
# [5] = in vitro; details: human; remark: listed apart in the source
# [6] = in vitro; details: human; remark: listed apart in the source
# [7] = in vitro; details: human; remark: listed apart in the source
# [8] = in vitro; details: human; remark: listed apart in the source
# [9] = tested on: NL4-3ΔEnv-NanoLuc/SARS-CoV-1 pseudovirus; test: microbe, parasite or virus in culture; format: cell-based; details: Severe acute respiratory syndrome coronavirus
# [10] = tested on: NL4-3ΔEnvLuc/A-MLV pseudovirus; test: microbe, parasite or virus in culture; format: cell-based, amphotropic murine leukemia virus (A-MLV); details: 293T/ACE2, read-out: A-MLV IC50
# [11] = in vitro; details: human, microsomes, pH 7.4
# [12] = target: CYP2C9 (Homo sapiens, UniProt P11712); test: biochemical
# Chain of CYP2C9 (P11712 whole entry): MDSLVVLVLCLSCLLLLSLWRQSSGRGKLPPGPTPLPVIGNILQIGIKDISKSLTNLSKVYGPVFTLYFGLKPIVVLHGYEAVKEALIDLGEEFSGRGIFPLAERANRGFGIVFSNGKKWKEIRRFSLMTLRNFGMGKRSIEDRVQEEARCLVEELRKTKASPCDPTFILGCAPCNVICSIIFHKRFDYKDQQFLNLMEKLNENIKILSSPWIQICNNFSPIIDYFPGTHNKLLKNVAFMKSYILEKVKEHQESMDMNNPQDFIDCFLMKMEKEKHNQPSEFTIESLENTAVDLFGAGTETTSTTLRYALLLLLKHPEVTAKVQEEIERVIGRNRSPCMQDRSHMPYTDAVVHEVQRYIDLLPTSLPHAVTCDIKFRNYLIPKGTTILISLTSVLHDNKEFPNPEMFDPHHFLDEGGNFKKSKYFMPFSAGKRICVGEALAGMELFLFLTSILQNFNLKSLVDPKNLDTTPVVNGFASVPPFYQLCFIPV
# [13] = tested on: MERS-CoV, EMC/2012; test: microbe, parasite or virus in culture; format: cell-based; details: Middle East respiratory syndrome-related coronavirus, Calu-3, read-out: IC50, MERS-CoV
# [14] = tested on: SARS-CoV-2 strains, SARS-COV-1, and MERS-CoV pseudoviruses; test: organism not typed; format: cell-based; details: Calu-3, read-out: IC50, range over all the viral clones evaluated
# [15] = target: CYP2C19 (Homo sapiens, UniProt P33261); test: biochemical
# Chain of CYP2C19 (P33261 whole entry): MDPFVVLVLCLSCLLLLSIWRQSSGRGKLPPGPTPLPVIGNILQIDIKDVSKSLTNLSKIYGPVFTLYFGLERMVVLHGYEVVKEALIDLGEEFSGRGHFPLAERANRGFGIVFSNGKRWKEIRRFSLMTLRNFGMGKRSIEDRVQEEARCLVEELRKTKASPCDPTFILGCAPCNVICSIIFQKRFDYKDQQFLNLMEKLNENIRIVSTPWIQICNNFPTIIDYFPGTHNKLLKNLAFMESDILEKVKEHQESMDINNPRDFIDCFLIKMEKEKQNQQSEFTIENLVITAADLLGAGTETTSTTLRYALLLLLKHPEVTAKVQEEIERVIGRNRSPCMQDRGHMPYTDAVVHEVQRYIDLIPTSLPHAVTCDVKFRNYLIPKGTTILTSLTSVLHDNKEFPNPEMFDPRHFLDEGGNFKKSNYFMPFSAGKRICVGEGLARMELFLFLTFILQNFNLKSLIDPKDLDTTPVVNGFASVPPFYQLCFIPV
# [16] = target: CYP2D6 (Homo sapiens, UniProt P10635); test: biochemical
# Chain of CYP2D6 (P10635 whole entry): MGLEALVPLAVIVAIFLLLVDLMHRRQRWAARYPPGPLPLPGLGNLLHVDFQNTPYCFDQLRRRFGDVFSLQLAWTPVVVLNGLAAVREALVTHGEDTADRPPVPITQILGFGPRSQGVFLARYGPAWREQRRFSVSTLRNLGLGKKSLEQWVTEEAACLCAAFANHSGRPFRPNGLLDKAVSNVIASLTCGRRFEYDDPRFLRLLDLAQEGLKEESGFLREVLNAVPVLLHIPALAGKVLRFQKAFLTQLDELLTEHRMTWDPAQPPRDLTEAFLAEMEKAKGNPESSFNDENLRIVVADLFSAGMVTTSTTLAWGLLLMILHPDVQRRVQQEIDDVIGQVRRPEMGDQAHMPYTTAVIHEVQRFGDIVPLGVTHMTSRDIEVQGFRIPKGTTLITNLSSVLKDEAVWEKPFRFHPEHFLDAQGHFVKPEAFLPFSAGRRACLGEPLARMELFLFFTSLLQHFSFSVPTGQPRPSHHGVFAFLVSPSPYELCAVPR
# [17] = pH 7.4
# [18] = physchem; details: pH 7.4
# [19] = target: CYP2B6 (Homo sapiens, UniProt P20813); test: biochemical
# Chain of CYP2B6 (P20813 whole entry): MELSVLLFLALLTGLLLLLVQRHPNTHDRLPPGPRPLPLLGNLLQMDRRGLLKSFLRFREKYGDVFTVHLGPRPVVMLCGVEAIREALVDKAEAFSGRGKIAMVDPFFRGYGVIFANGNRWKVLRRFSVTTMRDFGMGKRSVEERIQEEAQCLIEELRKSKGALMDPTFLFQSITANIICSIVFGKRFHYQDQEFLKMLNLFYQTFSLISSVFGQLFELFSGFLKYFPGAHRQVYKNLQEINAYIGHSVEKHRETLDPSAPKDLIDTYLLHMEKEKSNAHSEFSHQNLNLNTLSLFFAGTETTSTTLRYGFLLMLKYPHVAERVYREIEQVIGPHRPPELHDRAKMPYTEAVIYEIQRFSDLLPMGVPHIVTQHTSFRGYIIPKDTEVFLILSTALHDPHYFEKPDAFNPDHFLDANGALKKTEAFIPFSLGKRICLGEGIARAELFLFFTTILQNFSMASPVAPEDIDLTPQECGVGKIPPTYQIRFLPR
# [20] = tested on: SARS-CoV-1 Urbani; test: microbe, parasite or virus in culture; format: cell-based; details: Severe acute respiratory syndrome coronavirus, Calu-3, read-out: IC50, SARS-CoV-1 Urbani
# [21] = target: CYP2C8 (Homo sapiens, UniProt P10632); test: biochemical
# Chain of CYP2C8 (P10632 whole entry): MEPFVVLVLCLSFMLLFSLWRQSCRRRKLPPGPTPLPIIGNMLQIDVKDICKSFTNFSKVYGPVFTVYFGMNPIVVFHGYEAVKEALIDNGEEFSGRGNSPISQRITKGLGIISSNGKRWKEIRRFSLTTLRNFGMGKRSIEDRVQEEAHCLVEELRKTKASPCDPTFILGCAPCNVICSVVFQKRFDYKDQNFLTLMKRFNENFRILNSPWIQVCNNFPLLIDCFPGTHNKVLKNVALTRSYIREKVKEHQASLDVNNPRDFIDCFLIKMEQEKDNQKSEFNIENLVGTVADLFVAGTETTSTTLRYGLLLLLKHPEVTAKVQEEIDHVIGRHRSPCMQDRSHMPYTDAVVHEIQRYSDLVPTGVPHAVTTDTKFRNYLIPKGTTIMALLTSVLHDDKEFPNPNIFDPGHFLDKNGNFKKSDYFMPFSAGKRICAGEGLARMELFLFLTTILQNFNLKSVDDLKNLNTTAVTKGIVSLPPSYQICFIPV
# [22] = in vitro; details: human; remark: listed apart in the source
# [23] = Plasma protein binding; details: human, pH 7.4
# [24] = target: CYP1A2 (Homo sapiens, UniProt P05177); test: biochemical
# Chain of CYP1A2 (P05177 whole entry): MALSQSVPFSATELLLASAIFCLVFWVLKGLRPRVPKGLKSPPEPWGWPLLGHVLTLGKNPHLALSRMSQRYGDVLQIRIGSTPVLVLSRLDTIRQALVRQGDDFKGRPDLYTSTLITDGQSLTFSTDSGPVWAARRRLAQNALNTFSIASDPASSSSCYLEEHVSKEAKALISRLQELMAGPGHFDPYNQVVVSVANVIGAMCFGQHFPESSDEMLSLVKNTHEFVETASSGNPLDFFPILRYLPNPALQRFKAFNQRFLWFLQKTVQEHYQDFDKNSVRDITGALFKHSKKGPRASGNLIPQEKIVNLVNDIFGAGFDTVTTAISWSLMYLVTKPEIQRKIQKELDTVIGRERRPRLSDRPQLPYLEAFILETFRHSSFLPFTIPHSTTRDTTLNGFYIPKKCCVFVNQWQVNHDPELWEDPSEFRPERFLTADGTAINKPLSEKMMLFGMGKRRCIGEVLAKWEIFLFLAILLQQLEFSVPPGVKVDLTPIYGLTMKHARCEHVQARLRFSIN
# [25] = in vitro; details: human; remark: listed apart in the source
# [26] = Caco-2, read-out: MERS-CoV IC50
# [27] = Calu-3, read-out: MERS-CoV IC50
# [28] = Calu-3, read-out: SARS-CoV-2 USA-WA1/2020 IC50
# [29] = Pseudovirus, 293T/ACE2, read-out: IC50, range over both cell lines
# [30] = 293T/ACE2, read-out: SARS-CoV-1 IC50
# [31] = A549-ACE2, read-out: SARS-CoV-1 IC50
# [32] = Calu-3, read-out: SARS-CoV-1 IC50
Structure (SMILES),CC50 [1],IC50 [2],"IC50 [3, 26]","IC50 [3, 27]","IC50 ([3]; MRC5, read-out: MERS-CoV IC50)","IC50 [4, 28]","IC50 ([4]; Pseudovirus, 293T/ACE2)","IC50 ([4]; Pseudovirus, A549-ACE2)",CC50 [5],CC50 [6],CC50 [7],CC50 [8],"IC50 [9, 30]","IC50 [9, 31]","IC50 [9, 32]",IC50 [10],also measured
Cc1ccc2nc3s/c(=C/c4coc(-c5ccc(Cl)c(C(=O)O)c5)c4)c(=O)n3c2c1 [NBCoV35],~50000 nM,2800 nM,472 ± 43 nM,1670 ± 225 nM,715 ± 43 nM,360 ± 35 nM,198 ± 9 nM,126 ± 3 nM,> 50000 nM,> 50000 nM,~50000 nM,> 50000 nM,380 ± 69 nM,363 ± 11 nM,1250 ± 45 nM,1820 ± 25 nM,"IC50, cell-to-cell fusion inhibition ([2]; 4 h): the least active; IC50 [4, 29]: 66 to 198 nM"
O=C(O)c1cc(-c2ccc(/C=c3\sc4nc(=O)c5c6c(sc5n4c3=O)CCCC6)o2)ccc1Cl [NBCoV36],43000 ± 900 nM,900 nM,428 ± 34 nM,589 ± 117 nM,837 ± 38 nM,433 ± 49 nM,330 ± 18 nM,227 ± 18 nM,> 50000 nM,> 50000 nM,> 50000 nM,> 50000 nM,660 ± 30 nM,147 ± 19 nM,627 ± 58 nM,3300 ± 100 nM,–
Cc1cc(C)c2nc3s/c(=C\c4ccc(-c5ccc(Cl)c(C(=O)O)c5)o4)c(=O)n3c2c1 [NBCoV37],42500 ± 2000 nM,1400 nM,161 ± 53 nM,877 ± 50 nM,229 ± 20 nM,368 ± 45 nM,66 ± 2 nM,145 ± 12 nM,> 50000 nM,48000 ± 2000 nM,~50000 nM,> 50000 nM,340 ± 34 nM,95 ± 1 nM,1000 ± 132 nM,1510 ± 88 nM,"IC50 ([3]; read-out: MERS-CoV IC50, range over both cell lines): 161 to 229 nM; IC50 [4, 29]: 66 to 198 nM"
O=C(O)c1cc(C(=O)O)cc(-c2ccc(C=c3sc4nc5ccccc5n4c3=O)o2)c1 [NBCoV62],> 50000 nM,–,–,–,–,–,> 10000 nM,> 10000 nM,–,–,> 50000 nM,–,–,–,–,–,–
Cc1cc2nc3s/c(=C/c4ccc(-c5cccc(C(=O)O)c5)o4)c(=O)n3c2cc1C [NBCoV63],≥ 50000 nM,900 nM,75 ± 25 nM,220 ± 30 nM,102 ± 1 nM,120 ± 6 nM,80 ± 7 nM,55 ± 3 nM,50000 nM,> 50000 nM,≥ 50000 nM,> 50000 nM,110 ± 0.5 nM,59 ± 1.5 nM,133 ± 28 nM,303 ± 29 nM,"half-life [11]: > 3 h; microsomal CLint [11]: 3.4 µL/min/mg; IC50 [12]: > 25000 nM; IC50 [13]: 8010 nM; IC50 [14]: 120 to 220 nM; IC50 [15]: > 25000 nM; IC50 [16]: > 25000 nM; solubility [17]: low; solubility [18]: 6.25 µM; IC50 [19]: > 25000 nM; IC50 [20]: 3980 nM; antiviral activity (in words) [4]: Active; IC50 [21]: > 25000 nM; CC50 [22]: > 50000 nM; fraction unbound at 4 h, 5 µM [23]: < 0.005; IC50 [24]: > 25000 nM; efflux ratio ([25]; Caco-2): 42.3; Papp A→B ([25]; Caco-2, pH 7.4): 0.00242 ×10⁻⁶ cm/s; Papp B→A ([25]; Caco-2, pH 7.4): 0.19 ×10⁻⁶ cm/s"
Cc1cc2nc3s/c(=C\c4ccc(-c5ccc6c(c5)COC6=O)o4)c(=O)n3c2cc1C [NBCoV65],> 50000 nM,–,–,–,–,–,> 10000 nM,> 10000 nM,–,–,> 50000 nM,–,–,–,–,–,–
O=c1/c(=C/c2ccc(-c3ccccc3)o2)sc2nc3ccccc3n12 [NBCoV66],> 50000 nM,–,–,–,–,–,> 10000 nM,> 10000 nM,–,–,> 50000 nM,–,–,–,–,–,antiviral activity (in words) [4]: no antiviral activity; also recorded: Inactive
Cc1ccc2c(nc3s/c(=C\c4ccc(-c5ccccc5C(=O)O)o4)c(=O)n32)c1C [NBCoV68],> 50000 nM,–,–,–,–,–,3900 ± 100 nM,2300 ± 70 nM,–,–,> 50000 nM,–,–,–,–,–,–
Cc1ccc2c(nc3s/c(=C/c4ccc(-c5ccc(C(=O)O)cc5)o4)c(=O)n32)c1C [NBCoV69],> 50000 nM,–,–,–,–,–,2550 ± 105 nM,3000 ± 400 nM,–,–,> 50000 nM,–,–,–,–,–,–
Cc1cc(C(=O)O)ccc1-c1ccc(/C=c2\sc3nc4ccccc4n3c2=O)o1 [NBCoV70],> 50000 nM,–,–,–,–,–,9500 ± 1000 nM,> 10000 nM,–,–,> 50000 nM,–,–,–,–,–,–
O=c1/c(=C\c2ccc(-c3cccc(Cl)c3)o2)sc2nc3ccccc3n12 [NBCoV71],–,–,–,–,–,–,> 10000 nM,> 10000 nM,–,–,–,–,–,–,–,–,–
